Laboratory results from patent US10472347B2, “Aminopyrazine compounds with A2A antagonist properties” (Merck Sharp & Dohme Corp., priority 2014, dated 2019).

These compounds were tested against T1, human A2a receptor (Homo sapiens, UniProt P29274) (assay: A2a competition binding assay, Scintillation Proximity technology). Conditions: membranes from HEK293 cells expressing human A2a receptor; 0.5 nM tritiated ligand.
T1 construct: purchased Perkin-Elmer RBHA2AM400UA; host or cells: HEK293 cells (membranes)
Procedure, shortened: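 Membranes from HEK293 cells expressing human A2a, adenosine deaminase-treated, incubated 1 h at room temperature with compound (3000 to 0.15 nM) and 0.5 nM tritiated pyrazolotriazolopyrimidine radioligand on WGA SPA beads in Ca/Mg-free PBS + 10 mM MgCl2. Non-specific binding with 1 μM CGS15943; Ki by Cheng-Prusoff.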

T1 sequence (P29274 whole entry): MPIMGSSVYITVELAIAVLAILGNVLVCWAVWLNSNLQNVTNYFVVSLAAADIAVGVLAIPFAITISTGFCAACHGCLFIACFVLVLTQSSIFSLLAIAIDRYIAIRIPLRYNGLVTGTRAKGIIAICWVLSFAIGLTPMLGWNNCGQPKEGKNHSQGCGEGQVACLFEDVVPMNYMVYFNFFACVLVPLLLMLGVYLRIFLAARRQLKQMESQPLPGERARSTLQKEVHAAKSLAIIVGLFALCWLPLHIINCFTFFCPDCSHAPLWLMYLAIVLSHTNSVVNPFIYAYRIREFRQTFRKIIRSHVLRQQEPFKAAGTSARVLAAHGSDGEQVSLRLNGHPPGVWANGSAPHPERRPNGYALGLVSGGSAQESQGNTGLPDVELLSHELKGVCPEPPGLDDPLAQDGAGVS

With `Cc1nc(C(=O)NCc2ncccc2C2CC2)c(N)nc1-c1ncco1` [Ex-4, 3-amino-N-((3-cyclopropylpyridin-2-yl)methyl)-6-methyl-5-(oxazol-2-yl)pyrazine-2-carboxamide] as the compound, how does the EC50 read?
The EC50 was 4.6 nM.

Same assay, conditions: membranes from HEK293 cells expressing human A2a receptor; Ki by Cheng-Prusoff equation

How did the Ki turn out when `Cc1cnccc1CNC(=O)c1nc(C)c(-c2ncco2)nc1N` [Ex-67, 3-amino-6-methyl-N-[(3-methylpyridin-4-yl)methyl]-5-(1,3-oxazol-2-yl)pyrazine-2-carboxamide] was run?
The Ki was 64.1 nM.

Which Ki does the source give for `Nc1nc(-n2nccn2)c(Cl)nc1C(=O)NCc1cnc2ccccn12` [Ex-305, 3-amino-6-chloro-N-(imidazo[1,2-a]pyridin-3-ylmethyl)-5-(2H-1,2,3-triazol-2-yl)pyrazine-2-carboxamide] here?
Its Ki is 49.5 nM.

For `Nc1nc(-n2ccnn2)c(Cl)nc1C(=O)NCc1cccc2cccnc12` [Ex-272, 3-amino-6-chloro-N-(quinolin-8-ylmethyl)-5-(1H-1,2,3-triazol-1-yl)pyrazine-2-carboxamide], which Ki is on record?
Its Ki is 269 nM.

How did the Ki turn out when `Cc1nc(C(=O)NC2CCOc3ccccc32)c(N)nc1-c1ncco1` (stereo in doubt) [Ex-146, 3-amino-N-[(4S)-3,4-dihydro-2H-chromen-4-yl]-6-methyl-5-(1,3-oxazol-2-yl)pyrazine-2-carboxamide] was run?
The Ki was 5.57 nM.

Which Ki does the source give for `COCc1cccc(CNC(=O)c2nc(C)c(-c3ncco3)nc2N)n1` [Ex-122, 3-amino-N-{[6-(methoxymethyl)pyridin-2-yl]methyl}-6-methyl-5-(1,3-oxazol-2-yl)pyrazine-2-carboxamide] here?
The Ki was 2.91 nM.

Which Ki does the source give for `Cc1nc(C(=O)NCc2cccc[n+]2[O-])c(N)nc1-c1ncco1` [Ex-52, 3-amino-6-methyl-5-(1,3-oxazol-2-yl)-N-[(1-oxidopyridin-2-yl)methyl]pyrazine-2-carboxamide] here?
Its Ki is 4.88 nM.

With `Cc1nc(C(=O)NC2CCCC(O)CC2)c(N)nc1-c1ncco1` (single isomer, unassigned) [Ex-165A, 3-amino-N-(4-hydroxycycloheptyl)-6-methyl-5-(1,3-oxazol-2-yl)pyrazine-2-carboxamide] as the compound, how does the Ki read?
Its Ki is 13.1 nM.

With `Cc1nc(C(=O)NCC2(C#N)CCC2)c(N)nc1-c1ncco1` [Ex-93, 3-amino-N-[(1-cyanocyclobutyl)methyl]-6-methyl-5-(1,3-oxazol-2-yl)pyrazine-2-carboxamide] as the compound, how does the Ki read?
The Ki was 4 nM.

How did the Ki turn out when `Cc1nc(C(=O)NCc2nccn2CC(F)F)c(N)nc1-c1ncco1` [Ex-44, 3-amino-N-{[1-(2,2-difluoroethyl)-1H-imidazol-2-yl]methyl}-6-methyl-5-(1,3-oxazol-2-yl)pyrazine-2-carboxamide] was run?
Its Ki is 0.533 nM.

How did the Ki turn out when `Cc1nc(C(=O)NCc2cccc(C(F)(F)F)n2)c(N)nc1-c1ncco1` [Ex-121, 3-amino-6-methyl-5-(1,3-oxazol-2-yl)-N-{[6-(trifluoromethyl)pyridin-2-yl]methyl}pyrazine-2-carboxamide] was run?
Its Ki is 3.18 nM.

Which Ki does the source give for `Cc1nc(C(=O)NCc2cccc3c2ncn3C)c(N)nc1-c1ncco1` [Ex-218, 3-amino-6-methyl-N-[(1-methyl-1H-benzimidazol-4-yl)methyl]-5-(1,3-oxazol-2-yl)pyrazine-2-carboxamide] here?
Its Ki is 0.309 nM.

For `Cc1nc(C(=O)NCc2cccc3cccnc23)c(N)nc1-n1cccn1` [Ex-347, 3-amino-6-methyl-5-(1H-pyrazol-1-yl)-N-(quinolin-8-ylmethyl)pyrazine-2-carboxamide], which Ki is on record?
The Ki was 46.4 nM.

With `Cc1cnn(-c2nc(N)c(C(=O)NC3CCNc4ccccc43)nc2Cl)n1` (centres unmarked) [Ex-346, 3-amino-6-chloro-5-(4-methyl-2H-1,2,3-triazol-2-yl)-N-(1,2,3,4-tetrahydroquinolin-4-yl)pyrazine-2-carboxamide] as the compound, how does the Ki read?
Its Ki is 397 nM.

With `Cc1nc(C(=O)NCc2ncn(C(C)C)c2C)c(N)nc1-c1ncco1` [Ex-38, 3-amino-6-methyl-N-{[5-methyl-1-(1-methylethyl)-1H-imidazol-4-yl]methyl}-5-(1,3-oxazol-2-yl)pyrazine-2-carboxamide] as the compound, how does the Ki read?
Its Ki is 2.27 nM.

Which Ki does the source give for `Cc1nc(C(=O)NCc2nccn2C2CCC2)c(N)nc1-c1ncco1` [Ex-127, 3-amino-N-[(1-cyclobutyl-1H-imidazol-2-yl)methyl]-6-methyl-5-(1,3-oxazol-2-yl)pyrazine-2-carboxamide] here?
The Ki was 0.279 nM.

`Cc1nc2c(o1)CN(CCNC(=O)c1nc(C)c(-c3ncco3)nc1N)CC2` [Ex-190, 3-amino-6-methyl-N-[2-(2-methyl-6,7-dihydro[1,3]oxazolo[5,4-c]pyridin-5-(4H)-yl)ethyl]-5-(1,3-oxazol-2-yl)pyrazine-2-carboxamide] was tested. Which Ki did it give?
The Ki was 12.3 nM.

`Cc1nc(C(=O)N[C@@H]2CCC[C@H]2N(C)C)c(N)nc1-c1ncco1` [Ex-204, 3-amino-N-[(1R,2R)-2-(dimethylamino)cyclopentyl]-6-methyl-5-(1,3-oxazol-2-yl)pyrazine-2-carboxamide] was tested. Which Ki did it give?
The Ki was 1500 nM.

With `Nc1nc(-n2nccn2)c(Cl)nc1C(=O)N[C@H](CO)c1ccccn1` [Ex-324, 3-amino-6-chloro-N-[(1S)-2-hydroxy-1-pyridin-2-ylethyl]-5-(2H-1,2,3-triazol-2-yl)pyrazine-2-carboxamide] as the compound, how does the Ki read?
The Ki was 54 nM.

For `Nc1nc(-n2nccn2)c(Cl)nc1C(=O)NCc1cn2ccsc2n1` [Ex-310, 3-amino-6-chloro-N-(imidazo[2,1-b][1,3]thiazol-6-ylmethyl)-5-(2H-1,2,3-triazol-2-yl)pyrazine-2-carboxamide], which Ki is on record?
The Ki was 15.7 nM.

With `Cc1cnn(-c2nc(N)c(C(=O)NCc3cnn4ccccc34)nc2Cl)c1` [Ex-362, 3-amino-6-chloro-5-(4-methyl-1H-pyrazol-1-yl)-N-(pyrazolo[1,5-a]pyridin-3-ylmethyl)pyrazine-2-carboxamide] as the compound, how does the Ki read?
The Ki was 143 nM.

With `Cc1nc(C(=O)NC2CCCC(O)CC2)c(N)nc1-c1ncco1` (single isomer, unassigned) [Ex-165B, 3-amino-N-(4-hydroxycycloheptyl)-6-methyl-5-(1,3-oxazol-2-yl)pyrazine-2-carboxamide] as the compound, how does the Ki read?
Its Ki is 2.12 nM.

With `Cc1cc(C)nc(CNC(=O)c2nc(C)c(-c3ncco3)nc2N)c1` [Ex-35, 3-amino-N-[(4,6-dimethylpyridin-2-yl)methyl]-6-methyl-5-(1,3-oxazol-2-yl)pyrazine-2-carboxamide] as the compound, how does the Ki read?
Its Ki is 0.396 nM.

With `Cc1nc(C(=O)NC2CCCNC2)c(N)nc1-c1ncco1` (centres unmarked) [Ex-117, 3-amino-6-methyl-5-(1,3-oxazol-2-yl)-N-piperidin-3-ylpyrazine-2-carboxamide] as the compound, how does the Ki read?
Its Ki is 104 nM.

For `Cc1cccnc1CNC(=O)c1nc(C)c(-c2ncc(C(F)(F)F)o2)nc1N` [Ex-384, 3-amino-6-methyl-N-[(3-methylpyridin-2-yl)methyl]-5-[5-(trifluoromethyl)-1,3-oxazol-2-yl]pyrazine-2-carboxamide], which Ki is on record?
The Ki was 63.7 nM.

How did the Ki turn out when `Cc1cnn(-c2nc(N)c(C(=O)NCc3ncccc3C)nc2C)c1` [Ex-341, 3-amino-6-methyl-5-(4-methyl-1H-pyrazol-1-yl)-N-[(3-methylpyridin-2-yl)methyl]pyrazine-2-carboxamide] was run?
Its Ki is 105 nM.

`COc1cccc(CNC(=O)c2nc(C)c(-c3ncco3)nc2N)n1` [Ex-22, 3-amino-N-[(6-methoxypyridin-2-yl)methyl]-6-methyl-5-(1,3-oxazol-2-yl)pyrazine-2-carboxamide] was tested. Which Ki did it give?
Its Ki is 0.919 nM.

For `COc1cccnc1CNC(=O)c1nc(C)c(-c2ncco2)nc1N` [Ex-43, 3-amino-N-[(3-methoxypyridin-2-yl)methyl]-6-methyl-5-(1,3-oxazol-2-yl)pyrazine-2-carboxamide], which Ki is on record?
Its Ki is 0.116 nM.

For `Cc1nc(C(=O)NCc2cnn(C)c2C)c(N)nc1-c1ncco1` [Ex-78, 3-amino-N-[(1,5-dimethyl-1H-pyrazol-4-yl)methyl]-6-methyl-5-(1,3-oxazol-2-yl)pyrazine-2-carboxamide], which Ki is on record?
Its Ki is 5.72 nM.

For `Cc1nc(C(=O)NCc2cccnc2O)c(N)nc1-c1ncco1` [Ex-64, 3-amino-N-[(2-hydroxypyridin-3-yl)methyl]-6-methyl-5-(1,3-oxazol-2-yl)pyrazine-2-carboxamide], which Ki is on record?
The Ki was 1.5 nM.

How did the Ki turn out when `Cc1nc(C(=O)NCc2cccc3c2ncn3CC(F)F)c(N)nc1-c1ncco1` [Ex-36, 3-amino-N-{[1-(2,2-difluoroethyl)-1H-benzimidazol-4-yl]methyl}-6-methyl-5-(1,3-oxazol-2-yl)pyrazine-2-carboxamide] was run?
Its Ki is 0.464 nM.

With `Cc1nc(C(=O)NC2c3ncccc3CC2O)c(N)nc1-c1ncco1` (single isomer, unassigned) [Ex-238A, 3-amino-N-(6-hydroxy-6,7-dihydro-5H-cyclopenta[b]pyridin-7-yl)-6-methyl-5-(1,3-oxazol-2-yl)pyrazine-2-carboxamide] as the compound, how does the Ki read?
Its Ki is 5.51 nM.

`Cc1nc(C(=O)N(C)C(C)c2ccccn2)c(N)nc1-c1ncco1` (centres unmarked) [Ex-106, 3-amino-N,6-dimethyl-5-(1,3-oxazol-2-yl)-N-(1-pyridin-2-ylethyl)pyrazine-2-carboxamide] was tested. Which Ki did it give?
Its Ki is 252 nM.

Which Ki does the source give for `Cc1ccc(CNC(=O)c2nc(C)c(-c3ncco3)nc2N)c(C)n1` [Ex-70, 3-amino-N-[(2,6-dimethylpyridin-3-yl)methyl]-6-methyl-5-(1,3-oxazol-2-yl)pyrazine-2-carboxamide] here?
Its Ki is 41 nM.

How did the Ki turn out when `Cc1nc(C(=O)N[C@H]2CCC[C@H]2F)c(N)nc1-c1ncco1` [Ex-203, 3-amino-N-[(1S,2R)-2-fluorocyclopentyl]-6-methyl-5-(1,3-oxazol-2-yl)pyrazine-2-carboxamide] was run?
The Ki was 3.48 nM.

How did the Ki turn out when `Cc1nc(C(=O)NCc2ccncc2Cl)c(N)nc1-c1ncco1` [Ex-46, 3-amino-N-[(3-chloropyridin-4-yl)methyl]-6-methyl-5-(1,3-oxazol-2-yl)pyrazine-2-carboxamide] was run?
Its Ki is 5.59 nM.

For `Cc1cnn(-c2nc(N)c(C(=O)NCc3ncccc3C(F)(F)F)nc2Cl)c1` [Ex-343, 3-amino-6-chloro-5-(4-methyl-1H-pyrazol-1-yl)-N-{[3-(trifluoromethyl)pyridin-2-yl]methyl}pyrazine-2-carboxamide], which Ki is on record?
Its Ki is 35.9 nM.

`N#Cc1nc(C(=O)NCc2cccc3cccnc23)c(N)nc1-n1cccn1` [Ex-385, 3-amino-6-cyano-5-(1H-pyrazol-1-yl)-N-(quinolin-8-ylmethyl)pyrazine-2-carboxamide] was tested. Which Ki did it give?
The Ki was 0.6 nM.
